What was measured:
[1] = tested on: p-STAT3 (Tyr705) in B16 cells; assay: p-STAT3 immunoblotting in B16 cells; type: cell-based, murine; conditions: 4 hours, 5 and 10 μM (FIG. 3A)
Procedure: Immunoblotting analysis. Murine melanoma B16 cells and splenocytes were used for protein isolation and immunoblotting analysis as described below. B16 cells were seeded at a density of 2×10^6 cells/well in 6-well culture plates and incubated at 37° C., in an atmosphere containing 5% CO2, with the RPMI 1640 medium overnight. Afterward, B16 cells were cultured in the absence or presence of WP1193 (5 μM, 10 μM). After 3.5 hours, the B16 cells were further cultured in the absence or presence of 20 ng/ml of IFN-α for 30 minutes. For the splenocyte preparation, spleens from two 4- to 6-week-old female mice were harvested and disassociated into a single cell suspension. […] The supernatants were collected and quantified for protein content. […]
Autoradiography of the membranes was performed using Amersham ECL Western blotting detection reagents (Amersham Biosciences). The densities of the protein bands compared with the β-actin protein control were measured with the Image J program provided by the NIH.
In this experiment, B16 cells and splenocytes isolated from C57BL/6J mice and were incubated with either the medium, medium supplemented with titrated WP1193, medium supplemented with IFN-α, or medium supplemented with both IFN-α and WP1193. […] Semi-quantitative densitometry was used to determine the relative levels of p-STAT3 to STAT3 and β-actin.

B16 cells = assay: MHC I, MHC II and NK cell ligands on B16 melanoma cells (flow cytometry); type: cell-based, murine; conditions: WP1193 2 μM, IFN-α 20 ng/ml; for MHC I expression on B16: 24 hours (FIG. 6A); for surface H60, Rae-1 and CD155 (NK ligands) on B16: 24 hours (FIG. 6B)
Procedure: To ascertain the MHC I, MHC II, and NK ligands expressed on melanoma cells, B16 cells were seeded at a density of 2×10^6 cells/well in 24-well culture plates and cultured with the RPMI 1640 medium in the absence or presence of WP1193 (2 μM) and/or INF-α (20 ng/ml) for 24 hours. Afterwards, the cells were harvested and washed twice, and 10^6 cells in duplicate were Fc blocked with purified rat anti-mouse CD16/CD32 (BD Biosciences) for 15 minutes at room temperature. The B16 cells were washed and then stained for approximately 30 minutes at 4° C. with FITC-conjugated rat anti-mouse MHC I mAb (Abeam, Cambridge, Mass.), PE-conjugated rat anti-mouse MHC Class II mAb (Abeam), FITC-conjugated rat anti-mouse Rae-1 mAb (R&D Systems), APC-conjugated rat anti-mouse H60 mAb (R&D Systems) or PE-conjugated rat anti-mouse CD155 mAb (Biolegend). Negative control cells were stained with the corresponding isotypes. Following incubation, the cells were washed twice with FACS buffer and then analyzed with a BD FACSCalibur with gates set for viable cells.
Because we observed NK and CD8+ T cell-mediated anti-tumor cytotoxicity were enhanced with combinational therapy, to ascertain if either IFN-α, WP1193 or both were augmenting the expression of MHC or NK activating receptors or their ligands, splenocytes and B16 cells were treated with RPMI 1640 medium (control), WP1193 (2 μM), IFN-α (20 ng/ml), or IFN-α (20 ng/ml)+WP1193 (2 μM) for 24 hours. The NK-activating ligands (Rae-1, H60 and CD155) and MHC (I and II) on B16 cells and the NK-activating receptors (NKG2D, KLRD1, NKp46 and DNAM-1) on NK1.1+ NK cells were analyzed by flow cytometric analysis.

[2] = tested on: intracerebral B16 melanoma / LMD; assay: Etiology of death (LMD or tumor progression) in intracerebral B16 model; type: in vivo, C57BL/6J mice; conditions: for animals with LMD at death: autopsy at treatment failure, control 75%
Text: Both the control group (n=8) and in those treated with a sub-therapeutic dose of WP1193 (n=9) had macroscopic evidence of LMD, 75% and 67%, respectively, (Data not shown). In contrast, in those mice treated with IFN-α (n=6) or the combination of IFN-α and WP1193 (n=4), only 17% in the former and none of the animals treated with the combination died of LMD (FIG. 5). As would be expected, in a sub-analysis within each treatment group, mice that developed LMD died sooner than did those that died of tumor. Specifically, in the control group, median survival was 16.7±0.7 days in those mice that developed LMD and 18.5±1.5 days in those that died of tumor. Furthermore, in the sub-therapeutic WP1193 group, median survival was 17.7±0.3 days in mice that developed LMD and 20±2.1 days in those that died of tumor. In contrast, within the IFN-α treatment group, the median survival of mice with progressive tumor was 25.8±2.5 days, which was further increased to 29.7±5.5 days in the combination treatment group. Within individual treatment groups there was insufficient power to draw statistically meaningful conclusions; however when we assessed all mice who died of LMD, the median survival was 16.9±0.4 days compared with 24.7±2 days for mice dying of tumor progression (P=0.0006), indicating this model system conforms to the negative prognostic influence of LMD observed in human patients.

[3] = tested on: STAT3 in HH, HuT78 and MJ CTCL lines; assay: STAT3 tyrosine 705 phosphorylation in CTCL lines; type: cell-based, human; conditions: serum starved 18 hours, stimuli 30 minutes (FIG. 7)
Procedure: To determine whether IFN alpha and beta were able to selectively phosphorylate STAT3 in other cell types. Studies were conducted in a range of other biologically relevant cell types. In these experiments, cells were grown in media supplemented with 10% FBS, and then serum starved for 18 hours and exposed to various stimuli for 30 minutes.

[4] = tested on: STAT3 and Jak2 phosphorylation in SUP-T1 lymphoma cell line; assay: Cytokine signalling in SUP-T1 lymphoma cell line; type: cell-based; conditions: SUP-T1 lymphoma cell line (data not shown)
[5] = sub-analysis within treatment group

| Molecule | phosphorylation of p-STAT3 [1] | MHC I expression on B16 (B16 cells) | surface H60, Rae-1 and CD155 (NK ligands) on B16 (B16 cells) | animals with LMD at death [2] | median survival in mice that developed LMD [2, 5] | median survival in mice that died of tumor [2, 5] | tyrosine phosphorylation of STAT3 (tyrosine 705) [3] | STAT3 and Jak2 phosphorylation [4] |
| --- | --- | --- | --- | --- | --- | --- | --- | --- |
| N#C/C(=C\c1cccc(Br)n1)C(=O)N[C@H](c1ccccc1)C1CC1 [WP1193, (S,E)-3-(6-bromopyridin-2-yl)-2-cyano-N-(cyclopropyl(phenyl)methyl)acrylamide] | inhibits the phosphorylation of p-STAT3 | not further enhanced | do not alter the receptor density of the NK ligands | 67% | 17.7 ± 0.3 days | 20 ± 2.1 days | – | – |
| IFN-α | – | enhanced | do not alter the receptor density of the NK ligands | 17% | – | 25.8 ± 2.5 days | selectively stimulates tyrosine phosphorylation of STAT3 | potently induce STAT3 but not Jak2 phosphorylation |

Reference: patent US20130129675A1, “INTERFERON THERAPIES IN COMBINATION WITH BLOCKADE OF STAT3 ACTIVATION” (BOARD OF REGENTS, THE UNIVERSITY OF TEXAS SYSTEM, priority 2009, published 2013)
